One data set addresses CDK8/Cyclin C (Homo sapiens, UniProt P49336). Kind of data set: Inhibition of His tagged human recombinant CDK8/Cyclin C expressed in baculovirus expression system incubated for 15 mins by FRET-based LanthaScreen binding competition assay. A general note: Time-resolved FRET reads energy transfer from a long-lived donor to a nearby acceptor.
The target of data set [1] is Phosphatidylinositol 3-kinase catalytic subunit type 3 (Homo sapiens, UniProt Q8NEB9). The experiment in a line: Binding affinity to VPS34 (unknown origin) assessed as dissociation constant by competitive binding assay.
The target of data set [2] is Dual specificity protein kinase CLK1 (Homo sapiens, UniProt P49759). The experiment in a line: Binding affinity to CLK1 (unknown origin) assessed as dissociation constant by competitive binding assay.
A short description of data set [3]: Volume of distribution in CD-1 mouse at 5 mg/kg, po or 1 mg/kg, iv administered as single dose and measured for 24 hrs by LC-MS/MS analysis. It counts as ADME, organism-based. The conditions noted are these: in vivo.
Data set [4] is described as follows: Metabolic stability in rat liver microsomes assessed as intrinsic clearance at 1 uM preincubated for 10 mins followed by NADPH addition and measured for 60 mins by LC-MS/MS analysis. It counts as ADME, Microsome. As to conditions: read-out: CLH. On the technique in general: Microsomes from liver hold many membrane-bound enzymes, among them those of drug oxidation.

For data set [5], the target named is Glycogen synthase kinase-3 beta (Homo sapiens, UniProt P49841).
Description: Binding affinity to GSK3B (unknown origin) assessed as dissociation constant by competitive binding assay
Data set [6] has as its target Dual specificity protein kinase CLK2 (Homo sapiens, UniProt P49760). Kind of data set: Binding affinity to CLK2 (unknown origin) assessed as dissociation constant by competitive binding assay.
Data set [7] concerns the target Dual specificity tyrosine-phosphorylation-regulated kinase 1B (Homo sapiens, UniProt Q9Y463). The experiment in a line: Binding affinity to DYRK1B (unknown origin) assessed as dissociation constant by competitive binding assay.
The nature of data set [8]: Metabolic stability in human liver microsomes assessed as intrinsic clearance at 1 uM preincubated for 10 mins followed by NADPH addition and measured for 60 mins by LC-MS/MS analysis. Type of data set: ADME, Microsome. As to conditions: read-out: CLH.
Data set [9] in a line: Bioavailability in CD-1 mouse at 5 mg/kg, po or 1 mg/kg, iv administered as single dose and measured for 24 hrs by LC-MS/MS analysis. It counts as ADME, organism-based. As to conditions: in vivo.
The nature of data set [10]: Metabolic stability in mouse liver microsomes assessed as intrinsic clearance at 1 uM preincubated for 10 mins followed by NADPH addition and measured for 60 mins by LC-MS/MS analysis. It counts as ADME, Microsome. As to conditions: read-out: CLH.
The target of data set [11] is Glycogen synthase kinase-3 alpha (Homo sapiens, UniProt P49840). Kind of data set: Binding affinity to GSK3A (unknown origin) assessed as dissociation constant by competitive binding assay.
For data set [12], the system named is MV4-11. The experiment in a line: Antiproliferative activity against human MV4-11 cells assessed as inhibition of cell growth incubated for 10 days and replacement with fresh media with compounds on day 5 by CTG assay. It counts as functional, cell-based.
Data set [13] deals with T1, Serine/threonine-protein kinase LATS2 (Homo sapiens, UniProt Q9NRM7).
T1 sequence (Q9NRM7 whole entry): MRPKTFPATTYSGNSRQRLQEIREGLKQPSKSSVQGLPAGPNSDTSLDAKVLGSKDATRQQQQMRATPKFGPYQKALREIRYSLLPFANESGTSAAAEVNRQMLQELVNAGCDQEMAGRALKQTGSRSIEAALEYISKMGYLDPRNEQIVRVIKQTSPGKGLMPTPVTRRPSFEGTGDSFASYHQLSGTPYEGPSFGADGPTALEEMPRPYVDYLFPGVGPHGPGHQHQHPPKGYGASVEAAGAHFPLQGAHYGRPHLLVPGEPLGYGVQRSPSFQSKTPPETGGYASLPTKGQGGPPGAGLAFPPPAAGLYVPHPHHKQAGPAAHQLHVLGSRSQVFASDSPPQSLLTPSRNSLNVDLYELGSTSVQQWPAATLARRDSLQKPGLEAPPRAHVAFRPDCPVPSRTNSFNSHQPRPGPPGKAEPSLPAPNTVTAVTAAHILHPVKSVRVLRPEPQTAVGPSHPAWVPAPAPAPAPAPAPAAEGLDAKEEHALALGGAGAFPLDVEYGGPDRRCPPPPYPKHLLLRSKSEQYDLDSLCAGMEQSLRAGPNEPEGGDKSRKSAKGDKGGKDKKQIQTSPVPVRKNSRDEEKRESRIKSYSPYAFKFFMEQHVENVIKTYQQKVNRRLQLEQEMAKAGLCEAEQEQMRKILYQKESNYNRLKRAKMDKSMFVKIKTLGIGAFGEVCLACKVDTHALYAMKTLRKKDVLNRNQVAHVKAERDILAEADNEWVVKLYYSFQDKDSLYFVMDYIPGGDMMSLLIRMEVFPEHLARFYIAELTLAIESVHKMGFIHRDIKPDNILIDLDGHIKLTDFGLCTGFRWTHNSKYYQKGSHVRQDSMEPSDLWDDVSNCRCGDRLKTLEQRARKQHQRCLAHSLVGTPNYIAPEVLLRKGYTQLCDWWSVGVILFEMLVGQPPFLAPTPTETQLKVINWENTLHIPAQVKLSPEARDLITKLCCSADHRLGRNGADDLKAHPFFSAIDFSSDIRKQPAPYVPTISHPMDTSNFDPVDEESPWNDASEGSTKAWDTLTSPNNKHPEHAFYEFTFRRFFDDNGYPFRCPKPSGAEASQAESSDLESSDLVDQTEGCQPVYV
The experiment in a line: Binding affinity to LATS2 (unknown origin) assessed as dissociation constant by competitive binding assay.

Data set [14] relates to MV4-11. The experiment in a line: Antitumor activity against human MV4-11 cells xenografted in BALB/c nude mouse assessed as tumor growth inhibition at 60 mg/kg, po qd administered by gavage for 17 days and measured 3 times per week by caliper method relative to control. Type of data set: functional. As to conditions: MV4-11, 408 h, time 17 day, read-out: TGI.

A value given as a limit tells only on which side of the number the result lay.

Sequence of CDK8/Cyclin C (P49336 whole entry): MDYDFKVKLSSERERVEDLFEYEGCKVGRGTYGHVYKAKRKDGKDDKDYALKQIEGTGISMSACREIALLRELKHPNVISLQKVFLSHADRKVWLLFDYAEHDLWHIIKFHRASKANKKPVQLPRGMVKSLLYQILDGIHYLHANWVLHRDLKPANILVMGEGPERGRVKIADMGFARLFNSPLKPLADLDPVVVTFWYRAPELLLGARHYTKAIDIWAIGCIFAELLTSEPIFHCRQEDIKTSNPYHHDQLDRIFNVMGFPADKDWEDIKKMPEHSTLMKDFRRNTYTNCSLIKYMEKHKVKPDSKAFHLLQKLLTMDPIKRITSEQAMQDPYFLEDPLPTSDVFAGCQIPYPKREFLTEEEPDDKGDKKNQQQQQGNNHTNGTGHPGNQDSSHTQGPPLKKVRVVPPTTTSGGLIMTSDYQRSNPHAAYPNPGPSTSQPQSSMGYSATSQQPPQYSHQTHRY
Sequence of CDK8/Cyclin C (P24863 whole entry, further chain): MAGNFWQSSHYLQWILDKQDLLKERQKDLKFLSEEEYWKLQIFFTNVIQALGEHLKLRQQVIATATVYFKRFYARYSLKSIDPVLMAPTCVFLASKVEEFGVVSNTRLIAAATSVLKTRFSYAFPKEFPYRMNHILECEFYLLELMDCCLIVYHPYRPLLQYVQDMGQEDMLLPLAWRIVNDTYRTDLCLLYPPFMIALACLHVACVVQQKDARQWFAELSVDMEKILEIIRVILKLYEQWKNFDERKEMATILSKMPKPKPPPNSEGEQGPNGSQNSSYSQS
Sequence of Dual specificity protein kinase CLK2 (P49760 whole entry): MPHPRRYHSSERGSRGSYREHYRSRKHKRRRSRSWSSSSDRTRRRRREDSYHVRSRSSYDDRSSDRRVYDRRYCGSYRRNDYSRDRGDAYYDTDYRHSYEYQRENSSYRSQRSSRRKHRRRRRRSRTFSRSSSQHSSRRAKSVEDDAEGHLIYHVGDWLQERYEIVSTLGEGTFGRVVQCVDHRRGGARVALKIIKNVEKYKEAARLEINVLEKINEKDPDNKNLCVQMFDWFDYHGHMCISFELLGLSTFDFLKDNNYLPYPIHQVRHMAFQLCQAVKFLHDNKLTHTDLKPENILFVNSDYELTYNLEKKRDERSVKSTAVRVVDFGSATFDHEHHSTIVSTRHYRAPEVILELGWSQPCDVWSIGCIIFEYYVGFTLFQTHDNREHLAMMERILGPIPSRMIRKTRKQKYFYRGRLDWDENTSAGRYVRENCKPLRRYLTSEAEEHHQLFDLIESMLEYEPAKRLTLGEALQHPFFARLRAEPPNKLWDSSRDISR
Sequence of Dual specificity protein kinase CLK1 (P49759 whole entry): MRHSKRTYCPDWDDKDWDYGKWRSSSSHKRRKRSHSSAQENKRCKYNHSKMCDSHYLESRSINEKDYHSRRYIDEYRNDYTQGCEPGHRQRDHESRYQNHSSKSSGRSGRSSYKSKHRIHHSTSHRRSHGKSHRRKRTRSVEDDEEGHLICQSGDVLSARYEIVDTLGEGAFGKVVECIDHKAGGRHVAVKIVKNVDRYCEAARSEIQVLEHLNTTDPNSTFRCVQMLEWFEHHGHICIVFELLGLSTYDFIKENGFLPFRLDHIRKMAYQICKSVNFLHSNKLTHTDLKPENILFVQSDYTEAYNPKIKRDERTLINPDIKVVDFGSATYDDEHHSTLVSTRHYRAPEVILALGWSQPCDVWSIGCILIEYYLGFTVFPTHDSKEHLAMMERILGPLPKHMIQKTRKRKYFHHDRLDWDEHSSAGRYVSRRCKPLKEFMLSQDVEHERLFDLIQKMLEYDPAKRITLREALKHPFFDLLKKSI
Sequence of Glycogen synthase kinase-3 beta (P49841 whole entry): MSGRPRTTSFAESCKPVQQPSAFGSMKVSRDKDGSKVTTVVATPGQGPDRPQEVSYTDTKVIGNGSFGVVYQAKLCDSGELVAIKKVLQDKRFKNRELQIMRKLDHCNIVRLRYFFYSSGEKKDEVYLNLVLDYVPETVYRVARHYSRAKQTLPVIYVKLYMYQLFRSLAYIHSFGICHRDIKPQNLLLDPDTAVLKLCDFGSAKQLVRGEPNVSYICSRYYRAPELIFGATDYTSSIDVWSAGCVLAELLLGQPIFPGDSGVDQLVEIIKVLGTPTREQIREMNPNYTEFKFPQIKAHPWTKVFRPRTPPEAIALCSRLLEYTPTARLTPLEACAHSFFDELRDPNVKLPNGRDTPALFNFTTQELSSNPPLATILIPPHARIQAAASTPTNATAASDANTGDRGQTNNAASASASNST
Sequence of Phosphatidylinositol 3-kinase catalytic subunit type 3 (Q8NEB9 whole entry): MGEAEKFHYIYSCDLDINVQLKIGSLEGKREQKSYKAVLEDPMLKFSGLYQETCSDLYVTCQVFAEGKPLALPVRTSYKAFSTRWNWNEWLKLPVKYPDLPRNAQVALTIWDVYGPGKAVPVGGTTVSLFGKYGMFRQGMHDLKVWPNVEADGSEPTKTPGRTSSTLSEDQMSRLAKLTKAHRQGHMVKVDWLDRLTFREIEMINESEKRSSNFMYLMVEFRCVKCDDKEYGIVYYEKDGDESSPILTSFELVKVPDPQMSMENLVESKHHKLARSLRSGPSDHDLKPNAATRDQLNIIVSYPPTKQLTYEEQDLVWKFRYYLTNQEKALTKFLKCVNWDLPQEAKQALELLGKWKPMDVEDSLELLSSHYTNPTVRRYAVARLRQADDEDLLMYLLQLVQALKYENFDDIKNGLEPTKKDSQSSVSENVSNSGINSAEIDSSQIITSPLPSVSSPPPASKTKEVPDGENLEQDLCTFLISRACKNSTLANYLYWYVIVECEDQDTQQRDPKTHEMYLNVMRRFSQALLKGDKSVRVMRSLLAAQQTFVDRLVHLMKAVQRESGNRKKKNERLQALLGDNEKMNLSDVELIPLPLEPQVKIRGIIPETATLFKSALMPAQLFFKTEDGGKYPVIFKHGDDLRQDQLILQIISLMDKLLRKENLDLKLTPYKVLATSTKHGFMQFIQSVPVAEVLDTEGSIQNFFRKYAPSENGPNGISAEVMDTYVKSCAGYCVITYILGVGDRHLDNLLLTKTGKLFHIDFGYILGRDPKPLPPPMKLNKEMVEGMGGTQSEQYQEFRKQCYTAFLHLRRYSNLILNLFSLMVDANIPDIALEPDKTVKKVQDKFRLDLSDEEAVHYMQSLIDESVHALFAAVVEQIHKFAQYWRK
Sequence of Glycogen synthase kinase-3 alpha (P49840 whole entry): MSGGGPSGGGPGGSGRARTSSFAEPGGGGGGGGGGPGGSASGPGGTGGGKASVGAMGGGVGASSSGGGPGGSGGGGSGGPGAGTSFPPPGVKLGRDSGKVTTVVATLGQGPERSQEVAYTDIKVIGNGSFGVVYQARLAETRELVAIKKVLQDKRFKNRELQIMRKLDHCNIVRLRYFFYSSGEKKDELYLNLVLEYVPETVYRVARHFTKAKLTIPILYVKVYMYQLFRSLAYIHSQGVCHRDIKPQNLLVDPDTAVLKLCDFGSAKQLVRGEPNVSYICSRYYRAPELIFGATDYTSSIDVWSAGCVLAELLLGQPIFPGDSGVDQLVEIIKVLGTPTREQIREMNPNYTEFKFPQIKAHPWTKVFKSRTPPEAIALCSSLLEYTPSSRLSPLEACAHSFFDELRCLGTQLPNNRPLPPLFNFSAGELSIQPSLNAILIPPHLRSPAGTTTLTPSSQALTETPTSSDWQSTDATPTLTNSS
Sequence of Dual specificity tyrosine-phosphorylation-regulated kinase 1B (Q9Y463 whole entry): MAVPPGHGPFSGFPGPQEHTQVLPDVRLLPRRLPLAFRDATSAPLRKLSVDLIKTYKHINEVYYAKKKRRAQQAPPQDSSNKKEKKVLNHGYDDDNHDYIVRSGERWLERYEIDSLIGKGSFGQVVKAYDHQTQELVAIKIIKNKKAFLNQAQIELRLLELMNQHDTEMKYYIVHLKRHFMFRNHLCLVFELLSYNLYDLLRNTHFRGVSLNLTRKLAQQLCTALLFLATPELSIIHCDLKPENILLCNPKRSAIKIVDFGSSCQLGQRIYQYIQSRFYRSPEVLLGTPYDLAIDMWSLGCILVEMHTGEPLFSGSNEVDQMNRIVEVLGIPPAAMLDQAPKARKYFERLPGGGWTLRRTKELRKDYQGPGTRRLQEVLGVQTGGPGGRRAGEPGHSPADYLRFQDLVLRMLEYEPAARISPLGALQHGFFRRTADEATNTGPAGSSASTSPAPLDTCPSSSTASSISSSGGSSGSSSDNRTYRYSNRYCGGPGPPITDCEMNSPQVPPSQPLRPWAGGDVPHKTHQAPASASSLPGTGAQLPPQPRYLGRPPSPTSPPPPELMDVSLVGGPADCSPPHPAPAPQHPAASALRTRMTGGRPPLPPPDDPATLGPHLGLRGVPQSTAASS

In general, IC50 refers to the concentration needed to halve the response being measured. The term Kd denotes the concentration at which binding is half-saturated. By bioavailability is commonly meant the share of a dose that reaches the circulation, judged against a reference dose that is usually intravenous. Lower therefore signals poor availability. As to `Cc1n[nH]c2ccc(-c3nnc(C)n3Cc3ccc(Cl)cc3)cc12`, the values for the IC50 on CDK8/Cyclin C and in the data set with MV4-11 [12] were 0.49 nM and 8.6 nM, respectively. In addition, the Kd in data set [1] turned out to be 1800 nM; in data set [2] it was 43 nM; in [5] it was 56 nM; in data set [6], 36 nM; in data set [7] it was 1400 nM; in data set [11] it was 120 nM. Besides, the Kd in data set [13] amounted to 38 nM. The Vd in data set [3] was found to be 0.8 L/kg. The CLint scaled at 1 µM in [4] worked out at 54.4 mL/min/kg; in data set [8] it was 12.2 mL/min/kg; in [10] it was 342 mL/min/kg. Moreover, the bioavailability in data set [9] was 82.1%.

`Cc1n[nH]c2ccc(-c3nnn(C)c3Cc3ccc(Cl)cc3)cc12`: the 50% inhibitory concentration (IC50) at CDK8/Cyclin C worked out at 0.4 nM; in the data set on MV4-11 [12], 4.75 nM. Also, the CLint scaled at 1 µM in data set [4] was found to be 385 mL/min/kg; in data set [8], 66.1 mL/min/kg; in data set [10], 823 mL/min/kg.

For `Cc1n[nH]c2ccc(-c3ncc(C)n3Cc3ccc(Cl)cc3)cc12`, the IC50 came out at 7.32 nM at CDK8/Cyclin C and 367 nM in the data set with MV4-11 [12].

In the case of `Cc1n[nH]c2ccc(-c3nnc(C)n3Cc3ccc(C#N)cc3)cc12`, on CDK8/Cyclin C, the half-inhibitory concentration (IC50) worked out at 6.14 nM.

As to `Cc1nnc(-c2ccc3[nH]nc(Cl)c3c2)n1Cc1ccc(Cl)cc1`, the IC50 is 0.88 nM on CDK8/Cyclin C and 72.8 nM in the data set on MV4-11 [12]. The same compound registered a Vd in [3] of 2.7 L/kg. In addition, the CLint scaled at 1 µM in data set [4] is 54.5 mL/min/kg; in data set [8], 10.8 mL/min/kg; in data set [10], 273 mL/min/kg. For the same compound, in [9], the bioavailability was found to be 50.8%.

As for `Cc1n[nH]c2ccc(-c3nnc(C(F)(F)F)n3Cc3ccc(Cl)cc3)cc12`, the concentration for half-maximal inhibition (IC50) at CDK8/Cyclin C worked out at 4.82 nM.

`Cc1n[nH]c2ccc(-c3nnc(O)n3Cc3ccc(Cl)cc3)cc12`: the IC50 at CDK8/Cyclin C is greater than 1000 nM.

For the compound `CNc1n[nH]c2ccc(-c3nnc4n3C(c3ccc(Cl)cc3)CC4)cc12` (racemic), the half-inhibitory concentration (IC50) on CDK8/Cyclin C amounted to 5.4 nM.

Regarding `COc1nnc(-c2ccc3[nH]nc(C)c3c2)n1Cc1ccc(Cl)cc1`, at CDK8/Cyclin C, the concentration for half-maximal inhibition (IC50) is 82.9 nM.

In the case of `Cc1n[nH]c2ccc(-c3nnc(C)n3Cc3ccc(Cl)cc3)nc12`, at CDK8/Cyclin C, the concentration for half-maximal inhibition (IC50) worked out at 3.29 nM.

Consider `Cc1n[nH]c2ncc(-c3nnc4n3[C@H](c3ccc(Cl)cc3)CC4)cc12`, for which the results for the IC50 on CDK8/Cyclin C and in the data set on MV4-11 [12] were 1.5 nM and 24.6 nM, respectively. Also, the Kd worked out at 2900 nM in data set [1]; 86 nM in data set [2]; 3.8 nM in [5]; 82 nM in [6]; 2100 nM in [7]; 6.5 nM in [11]. For the same compound, the Kd in data set [13] was 730 nM. Besides, the Vd in [3] worked out at 0.7 L/kg. In addition, the CLint scaled at 1 µM was 104 mL/min/kg in [4], less than 8.6 mL/min/kg in data set [8] and 368 mL/min/kg in data set [10]. The bioavailability in data set [9] turned out to be 63.4%.

As for `Cc1n[nH]c2ncc(-c3nnc(C)n3Cc3ccc(Cl)cc3)cc12`, the IC50 at CDK8/Cyclin C came out at 17.1 nM.

In the case of `Cc1n[nH]c2ccc(-c3nnc4n3[C@H](c3ccc(Cl)cc3)CNC4)cc12`, the IC50 at CDK8/Cyclin C amounted to 0.48 nM. The CLint scaled at 1 µM in data set [8] was found to be 64.9 mL/min/kg; in [10], 1310 mL/min/kg.

For `Cc1n[nH]c2ccc(-c3nnc4n3[C@H](c3ccc(Cl)cc3)CCC4)cc12`, at CDK8/Cyclin C, the IC50 came out at 0.37 nM. Also, the CLint scaled at 1 µM in data set [8] was 87.1 mL/min/kg; in data set [10], 843 mL/min/kg.

For the compound `Cc1n[nH]c2ccc(-c3nnc4n3[C@H](c3ccc(Cl)cc3)COC4)cc12`, the IC50 at CDK8/Cyclin C is 0.63 nM; with MV4-11 [12] it was 7.6 nM. In data set [3], the Vd was found to be 1.2 L/kg. Further, the CLint scaled at 1 µM in [4] amounted to 118 mL/min/kg; in [8], 92 mL/min/kg; in data set [10] it was 720 mL/min/kg. Also, in data set [9], the bioavailability amounted to 19.4%.

As for `CNc1n[nH]c2ncc(-c3nnc4n3C(c3ccc(Cl)cc3)CC4)cc12` (racemic), the concentration for half-maximal inhibition (IC50) on CDK8/Cyclin C turned out to be 35.7 nM.

`Cc1n[nH]c2ccc(-c3nnc4n3[C@H](c3ccc(Cl)cc3)CN(C)C4)cc12`: the half-inhibitory concentration (IC50) at CDK8/Cyclin C came to 0.83 nM; with MV4-11 [12], 6.2 nM.

Turning to `Cc1n[nH]c2ccc(-c3nnc(C)n3C(C)c3ccc(Cl)cc3)cc12` (stereo not given), the IC50 at CDK8/Cyclin C was found to be 277 nM.

Regarding `Cc1n[nH]c2ccc(-c3cnn(C)c3Cc3ccc(Cl)cc3)cc12`, the 50% inhibitory concentration (IC50) at CDK8/Cyclin C was 0.71 nM. Further, the CLint scaled at 1 µM is 59.2 mL/min/kg in data set [8] and 536 mL/min/kg in data set [10].

Regarding `Cc1n[nH]c2ccc(-c3nnc4n3[C@H](c3ccc(Cl)cc3)CC4)cc12`, the 50% inhibitory concentration (IC50) at CDK8/Cyclin C was 0.4 nM; in the data set with MV4-11 [12], 2.4 nM. Besides, the dissociation constant Kd in [1] worked out at 68 nM; in data set [2], 15 nM; in [6] it was 2.1 nM; in [7], 330 nM; in data set [11], 4.3 nM; in [13], 18 nM. Besides, the Vd in data set [3] worked out at 0.7 L/kg. In addition, the CLint scaled at 1 µM in [4] came to 151 mL/min/kg; in [8], 23.1 mL/min/kg; in data set [10] it was 540 mL/min/kg. In addition, the bioavailability in data set [9] is 63.7%.

Consider `Cc1n[nH]c2ccc(-c3nnc(C)n3Cc3ccc(Cl)cn3)cc12`, for which, at CDK8/Cyclin C, the IC50 amounted to 80 nM.

As to `Cc1n[nH]c2ccc(-c3nnc4n3[C@H](c3ccc(Cl)cc3)CC4)nc12`, the IC50 on CDK8/Cyclin C stood at 0.9 nM; in the data set with MV4-11 [12], 11.7 nM. Moreover, the Kd is 20 nM in data set [1]; 71 nM in data set [2]; 39 nM in [5]; 64 nM in data set [6]; 1300 nM in [7]; 74 nM in data set [11]. In addition, the Kd in [13] is 460 nM. For the same compound, the Vd in [3] was found to be 0.4 L/kg. Besides, the figures for the CLint scaled at 1 µM in data set [4], in [8] and in data set [10] were 270 mL/min/kg, less than 8.6 mL/min/kg and 339 mL/min/kg, respectively. Moreover, the bioavailability in data set [9] turned out to be 63.7%.

As to `Cc1c(Br)c(Br)c2c3c1nc(N1CCNCC1)n3CCC2` [SEL-120 FREE BASE], the figures for the half-maximal inhibitory concentration (IC50) on CDK8/Cyclin C and in the data set with MV4-11 [12] were 14.1 nM and 249 nM, respectively. The inhibition in vivo at 60 mg/kg in the data set on MV4-11 [14] worked out at 55.6%.

The values above are taken from ChEMBL document CHEMBL5380857, “Discovery of Potent, Selective, and Orally Bioavailable Small-Molecule Inhibitors of CDK8 for the Treatment of Cancer” (J Med Chem, 2023).
